Source: US9650339B2, “Inhibitors of histone demethylases” (Gilead Sciences, Inc., priority 2013, dated 2017)

How the values were obtained:
Type in all cases: biochemical
[1] = target: T1, KDM4B (JMJD2B) (Homo sapiens, UniProt O94953); experiment: Histone lysine demethylase AlphaLISA assay, KDM4B; conditions: read-out: KDM4B HDME Inhibition IC50
T1 construct: 2-500; purchased BPS; host or cells: Bac (baculovirus system)
T1 sequence (O94953 2-500): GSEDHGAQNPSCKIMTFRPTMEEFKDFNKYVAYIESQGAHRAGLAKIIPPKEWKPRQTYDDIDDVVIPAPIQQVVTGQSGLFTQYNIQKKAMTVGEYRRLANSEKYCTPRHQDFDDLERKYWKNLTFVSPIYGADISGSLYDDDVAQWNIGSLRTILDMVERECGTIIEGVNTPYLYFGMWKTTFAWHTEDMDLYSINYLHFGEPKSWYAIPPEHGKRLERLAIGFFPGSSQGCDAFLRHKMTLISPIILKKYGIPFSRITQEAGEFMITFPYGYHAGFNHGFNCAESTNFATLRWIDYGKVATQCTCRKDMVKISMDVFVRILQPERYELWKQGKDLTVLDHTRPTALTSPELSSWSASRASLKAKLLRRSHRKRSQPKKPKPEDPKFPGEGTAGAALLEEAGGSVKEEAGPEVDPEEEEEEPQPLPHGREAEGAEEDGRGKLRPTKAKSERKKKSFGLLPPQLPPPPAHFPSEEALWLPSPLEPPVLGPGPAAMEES
Summary of the method: (§1)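 Biotinylated methylated H3 peptides (K9, K4, K27 or K36 marks) served as substrate, with 25 μM L-Asc and 10 μM α-KG. Enzymes were preincubated 10 min, then exposed to compounds (3% DMSO solutions) 10 min; product detected by AlphaLISA acceptor and streptavidin donor beads at room temperature in dark.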

[2] = target: T2, KDM5C (JARID1C) (Homo sapiens, UniProt P41229); experiment: Histone lysine demethylase AlphaLISA assay, KDM5C; conditions: read-out: KDM5C HDME Inhibition IC50
T2 construct: 2-1560; purchased BPS; host or cells: Bac (baculovirus system)
Summary of the method: as §1

[3] = target: T3, KDM5B (PLU-1) (Homo sapiens, UniProt Q9UGL1); experiment: Histone lysine demethylase AlphaLISA assay, KDM5B; conditions: read-out: KDM5B HDME Inhibition IC50
T3 sequence (Q9UGL1 1-809): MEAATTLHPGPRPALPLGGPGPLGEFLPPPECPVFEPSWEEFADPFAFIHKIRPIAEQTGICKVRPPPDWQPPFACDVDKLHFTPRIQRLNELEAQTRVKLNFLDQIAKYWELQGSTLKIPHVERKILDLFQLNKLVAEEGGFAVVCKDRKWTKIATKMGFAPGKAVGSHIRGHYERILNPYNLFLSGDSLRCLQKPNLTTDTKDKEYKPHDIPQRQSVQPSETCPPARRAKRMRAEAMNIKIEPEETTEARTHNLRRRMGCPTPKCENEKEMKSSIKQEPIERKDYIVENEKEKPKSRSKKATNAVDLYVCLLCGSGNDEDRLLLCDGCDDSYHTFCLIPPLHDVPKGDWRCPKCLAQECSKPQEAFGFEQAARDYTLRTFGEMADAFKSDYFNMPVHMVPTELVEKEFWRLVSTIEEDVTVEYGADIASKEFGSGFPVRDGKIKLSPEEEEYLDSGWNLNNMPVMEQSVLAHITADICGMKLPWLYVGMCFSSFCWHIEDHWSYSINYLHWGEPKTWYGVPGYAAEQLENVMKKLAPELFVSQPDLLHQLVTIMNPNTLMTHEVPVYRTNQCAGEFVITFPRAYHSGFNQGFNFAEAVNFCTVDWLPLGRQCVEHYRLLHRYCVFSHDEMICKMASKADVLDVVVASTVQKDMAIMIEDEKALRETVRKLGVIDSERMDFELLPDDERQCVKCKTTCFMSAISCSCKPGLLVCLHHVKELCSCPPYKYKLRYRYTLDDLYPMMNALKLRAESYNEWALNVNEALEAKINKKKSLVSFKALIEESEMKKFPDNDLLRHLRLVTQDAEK
Summary of the method: as §1

[4] = target: KDM6A (UTX) (Homo sapiens, UniProt O15550); experiment: Histone lysine demethylase AlphaLISA assay, KDM6A; conditions: read-out: KDM6A HDME Inhibition IC50
Summary of the method: as §1

[5] = target: T4, KDM6B (JMJD3) (Homo sapiens, UniProt O15054); experiment: Histone lysine demethylase AlphaLISA assay, KDM6B; conditions: read-out: KDM6B HDME Inhibition IC50
T4 construct: 1043-end; purchased BPS; host or cells: Bac (baculovirus system)
Summary of the method: as §1

T2 sequence (P41229 2-1560): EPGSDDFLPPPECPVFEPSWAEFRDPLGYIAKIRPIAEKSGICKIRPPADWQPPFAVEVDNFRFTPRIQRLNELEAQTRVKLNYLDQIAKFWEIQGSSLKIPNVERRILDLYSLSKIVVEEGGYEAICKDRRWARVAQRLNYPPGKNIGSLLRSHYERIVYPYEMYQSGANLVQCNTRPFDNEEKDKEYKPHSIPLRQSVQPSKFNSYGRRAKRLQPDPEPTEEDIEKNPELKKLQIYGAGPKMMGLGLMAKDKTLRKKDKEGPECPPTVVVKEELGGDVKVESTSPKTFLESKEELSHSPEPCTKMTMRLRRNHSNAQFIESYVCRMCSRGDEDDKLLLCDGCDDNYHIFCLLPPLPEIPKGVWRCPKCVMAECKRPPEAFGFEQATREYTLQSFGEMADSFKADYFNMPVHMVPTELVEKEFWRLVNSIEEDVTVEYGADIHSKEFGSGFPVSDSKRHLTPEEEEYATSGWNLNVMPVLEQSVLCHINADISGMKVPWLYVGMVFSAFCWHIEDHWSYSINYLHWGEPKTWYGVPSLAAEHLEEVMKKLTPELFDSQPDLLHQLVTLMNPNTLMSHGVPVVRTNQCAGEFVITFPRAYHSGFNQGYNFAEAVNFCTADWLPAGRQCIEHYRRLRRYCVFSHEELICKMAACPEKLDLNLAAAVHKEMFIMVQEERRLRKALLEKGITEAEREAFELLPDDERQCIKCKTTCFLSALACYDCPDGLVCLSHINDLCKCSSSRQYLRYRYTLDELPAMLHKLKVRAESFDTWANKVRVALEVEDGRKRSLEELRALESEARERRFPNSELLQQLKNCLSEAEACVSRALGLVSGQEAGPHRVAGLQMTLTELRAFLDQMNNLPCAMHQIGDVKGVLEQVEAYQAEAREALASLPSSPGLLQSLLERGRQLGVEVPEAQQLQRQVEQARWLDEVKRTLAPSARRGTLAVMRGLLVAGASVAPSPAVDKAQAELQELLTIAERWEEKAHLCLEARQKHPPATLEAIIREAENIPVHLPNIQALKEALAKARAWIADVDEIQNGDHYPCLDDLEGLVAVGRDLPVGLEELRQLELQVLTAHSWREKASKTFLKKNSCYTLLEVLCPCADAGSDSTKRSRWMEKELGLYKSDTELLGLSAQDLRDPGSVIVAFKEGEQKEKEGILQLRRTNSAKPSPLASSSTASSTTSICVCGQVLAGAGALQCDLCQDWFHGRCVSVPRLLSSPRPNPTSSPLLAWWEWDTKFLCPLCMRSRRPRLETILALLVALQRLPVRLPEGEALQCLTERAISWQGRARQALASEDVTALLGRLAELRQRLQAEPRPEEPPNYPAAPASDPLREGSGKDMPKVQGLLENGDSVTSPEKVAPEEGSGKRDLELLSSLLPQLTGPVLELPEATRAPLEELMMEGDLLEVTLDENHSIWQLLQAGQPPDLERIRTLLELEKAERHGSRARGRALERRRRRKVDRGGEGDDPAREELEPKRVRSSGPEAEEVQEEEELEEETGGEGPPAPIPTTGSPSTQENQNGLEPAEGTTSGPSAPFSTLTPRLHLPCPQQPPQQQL
Sequence of KDM6A (UTX) (O15550 919-1401): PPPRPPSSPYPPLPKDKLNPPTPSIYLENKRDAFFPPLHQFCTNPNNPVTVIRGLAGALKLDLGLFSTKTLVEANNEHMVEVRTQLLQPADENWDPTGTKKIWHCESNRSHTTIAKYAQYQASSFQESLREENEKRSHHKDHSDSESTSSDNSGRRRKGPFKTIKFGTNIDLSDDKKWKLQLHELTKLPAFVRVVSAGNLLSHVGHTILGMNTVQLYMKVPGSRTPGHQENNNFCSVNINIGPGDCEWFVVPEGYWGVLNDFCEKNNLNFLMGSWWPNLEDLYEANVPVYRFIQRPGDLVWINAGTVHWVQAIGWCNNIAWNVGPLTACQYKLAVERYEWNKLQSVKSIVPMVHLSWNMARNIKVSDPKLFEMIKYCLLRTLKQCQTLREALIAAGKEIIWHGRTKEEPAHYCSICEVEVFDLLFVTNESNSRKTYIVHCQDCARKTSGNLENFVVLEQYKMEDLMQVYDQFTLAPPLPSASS
T4 sequence (O15054 1043-1682 isoform O15054-1 limits assumed): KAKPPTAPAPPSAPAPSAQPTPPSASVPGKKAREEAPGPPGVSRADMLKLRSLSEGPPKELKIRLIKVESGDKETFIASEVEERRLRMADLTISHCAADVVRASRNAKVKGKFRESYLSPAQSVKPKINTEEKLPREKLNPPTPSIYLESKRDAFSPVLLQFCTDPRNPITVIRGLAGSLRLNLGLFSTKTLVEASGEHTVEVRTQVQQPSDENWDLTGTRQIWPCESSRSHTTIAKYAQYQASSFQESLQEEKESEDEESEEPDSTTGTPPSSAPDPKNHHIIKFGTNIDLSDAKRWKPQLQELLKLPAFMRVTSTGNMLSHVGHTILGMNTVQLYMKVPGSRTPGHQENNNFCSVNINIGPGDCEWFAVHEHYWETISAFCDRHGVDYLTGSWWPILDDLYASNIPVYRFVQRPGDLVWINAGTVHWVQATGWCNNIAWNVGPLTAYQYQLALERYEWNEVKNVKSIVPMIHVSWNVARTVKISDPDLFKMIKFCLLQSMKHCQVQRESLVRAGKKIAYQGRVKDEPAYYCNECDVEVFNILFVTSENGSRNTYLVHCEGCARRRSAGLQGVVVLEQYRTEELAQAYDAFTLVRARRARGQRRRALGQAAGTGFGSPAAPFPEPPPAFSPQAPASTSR

SMILES | IC50 [1] [nM] | IC50 [2] [nM] | IC50 [3] [nM] | IC50 [4] [nM] | IC50 [5] [nM]
O=C(CNCc1cc(/C=N/C2CC2)ccn1)NC1CCN(Cc2ccccc2)C1 (stereo not drawn) [Compound 53, N-(1-benzylpyrrolidin-3-yl)-2-[({4-[N-cyclopropyl-carboximidoyl]pyridin-2-yl}methyl)amino]-acetamide] | < 250 | < 250 | < 250 | > 2500 | 250 to 2500
CN1CCN(C(=O)CNCc2cc(/C=N/C3CC3)ccn2)CC1 [Compound 54, 2-[({4-[N-cyclopropyl-carboximidoyl]-pyridin-2-yl}methyl)amino]-1-(4-methylpiperazin-1-yl)ethan-1-one] | 250 to 2500 | < 250 | < 250 | > 2500 | > 2500
O=C(CNCc1cc(/C=N/C2CC2)ccn1)N1CCC(Cc2ccccc2)CC1 [Compound 55, 1-(4-benzylpiperidin-1-yl)-2-[({4-[N-cyclopropyl-carboximidoyl]-pyridin-2-yl}methyl)amino]-ethan-1-one] | < 250 | 250 to 2500 | < 250 | > 2500 | > 2500
C#CCN(C)C(=O)CNCc1cc(/C=N/C2CC2)ccn1 [Compound 56, 2-[({4-[N-cyclopropyl-carboximidoyl]-pyridin-2-yl}methyl)amino]-N-methyl-N-(prop-2-yn-1-yl)acetamide] | 250 to 2500 | 250 to 2500 | 250 to 2500 | > 2500 | > 2500
CCN(CC)C(=O)CNCc1cc(/C=N/CCC2CCCCC2)ccn1 [Compound 57, 2-[({4-[[(2-cyclohexylethyl)imino]-methyl]pyridin-2-yl}methyl)amino]-N,N-diethylacetamide] | < 250 | < 250 | < 250 | > 2500 | > 2500
CCCCCCCC/N=C/c1ccnc(CNCC(=O)N(CC)CC)c1 [Compound 58, N,N-diethyl-2-[({4-[(octylimino)methyl]-pyridin-2-yl}methyl)amino]-acetamide] | > 2500 | < 250 | < 250 | > 2500 | > 2500
CCN(CC)CCCCNCc1cc(/C=N/CCOC)ccn1 [Compound 60, [4-(diethylamino)butyl]-({4-[[(2-methoxyethyl)imino]-methyl]pyridin-2-yl}methyl)amine] | < 250 | < 250 | < 250 | > 2500 | > 2500
CCN(CC)CCCCNCc1cc(/C=N/CCO)ccn1 [Compound 61, 2-[{[2-({[4-(diethylamino)-butyl]amino}-methyl)pyridin-4-yl]methylidene}-amino]ethan-1-ol] | < 250 | < 250 | < 250 | > 2500 | > 2500
CCN(CC)CCCCNCc1cc(/C=N/CC(F)(F)C(F)(F)F)ccn1 [Compound 62, {[2-({[4-(diethylamino)-butyl]amino}methyl)pyridin-4-yl]methylidene} (2,2,3,3,3-pentafluoropropyl)-amine] | 250 to 2500 | < 250 | < 250 | > 2500 | > 2500
CCN(CCN(C)C)C(=O)CNCc1cc(/C=N/CCC2CCCCC2)ccn1 [Compound 63, 2-[({4-[[(2-cydohexylethyl)-imino]methyl]pyridin-2-yl}methyl)amino]-N-[2-(dimethylamino)-ethyl]-N-ethylacetamide] | 250 to 2500 | < 250 | < 250 | > 2500 | > 2500
CON=Cc1ccnc(CNCCCN(C)C)c1 [Compound 64, [3-(dimethylamino)-propyl]({4-[(methoxyimino)-methyl]pyridin-2-yl}methyl)amine] | < 250 | > 2500 | < 250 | > 2500 | > 2500
CCN(CC)CCCCNCc1cc(C2NCCN2C)ccn1 (stereo not drawn) [Compound 65, [4-(diethylamino)-butyl]({[4-(1-methylimidazolidin-2-yl)pyridin-2-yl]methyl})amine] | > 2500 | < 250 | < 250 | > 2500 | > 2500
CCN(CCN(C)C)C(=O)CNCc1cc(/C=N/CCO)ccn1 [Compound 66] | < 250 | < 250 | < 250 | > 2500 | > 2500
CN(C)C/C=C/CNCc1cc(C=O)ccn1 [Compound 98, 2-({[(2E)-4-(dimethylamino)but-2-en-1-yl]amino}-methyl)pyridine-4-carbaldehyde] | > 2500 | < 250 | < 250 | > 2500 | > 2500
CCN(CCN(C)C)C(=O)CNCc1cc(C=O)ccn1 [Compound 101] | < 250 | < 250 | < 250 | > 2500 | > 2500
O=Cc1ccnc(CNCC(=O)N2CCC[C@@H]2CN2CCCC2)c1 [Compound 102, 2-[({2-oxo-2-[(2R)-2-(pyrrolidin-1-ylmethyl)pyrrolidin-1-yl]ethyl}amino)-methyl]pyridine-4-carbaldehyde] | 250 to 2500 | < 250 | < 250 | > 2500 | > 2500
CN1CCN(C(=O)CNCc2cc(C=O)ccn2)CC1 [Compound 103, 2-({[2-(4-methylpiperazin-1-yl)-2-oxoethyl]-amino}methyl)-pyridine-4-carbaldehyde] | > 2500 | < 250 | 250 to 2500 | > 2500 | > 2500
CCN1CCCC1CNC(=O)CNCc1cc(C=O)ccn1 (stereo not drawn) [Compound 104, N-[(1-ethylpyrrolidin-2-yl)methyl]-2-{[(4-formylpyridin-2-yl)methyl]amino}-acetamide] | < 250 | < 250 | < 250 | > 2500 | > 2500
O=Cc1ccnc(CNCC(=O)N2CCC(Cc3ccccc3)CC2)c1 [Compound 106, 2-({[2-(4-benzylpiperidin-1-yl)-2-oxoethyl]-amino}methyl)-pyridine-4-carbaldehyde] | < 250 | > 2500 | < 250 | > 2500 | > 2500
CCN(CC)CCCCNCc1cc(C=O)ccn1 [Compound 107, 2-({[4-(diethylamino)-butyl]amino}-methyl)pyridine-4-carbaldehyde] | < 250 | < 250 | < 250 | > 2500 | > 2500
O=Cc1ccnc(CNCCCN2CCCC2)c1 [Compound 111, 2-({[3-(pyrrolidin-1-yl)propyl]amino}-methyl)pyridine-4-carbaldehyde] | 250 to 2500 | < 250 | < 250 | > 2500 | > 2500
